Measurements taken from ChEMBL document CHEMBL1135210, “Succinimide hydroxamic acids as potent inhibitors of histone deacetylase (HDAC)” (Bioorg Med Chem Lett, 2002).
pIC50: −log10 of the molar value.

Assays:
[1] = biological target: Histone deacetylase; experiment: Concentration required to inhibit Histone Deacetylase (HDAC) from K562 erythroleukemia cells; assay type: cell-based, Homo sapiens
[2] = system: HT-1080; experiment: Concentration required for the antiproliferation of Human HT1080 fibrosarcoma cells; assay type: functional, cell-based
[3] = cells; assay type: functional; conditions: Homo sapiens, MDA435
Description: Concentration required for the antiproliferation of Human MDA-435 breast carcinoma cells

| pIC50 [1] | Compound | IC50 [1] [nM] | pIC50 [2] | pIC50 [3] |
| --- | --- | --- | --- | --- |
| – | CC(C)C[C@@H]1CC(=O)N([C@@H](CC2CCCCC2)C(=O)NCCCCCC(=O)NO)C1=O | 640 | – | – |
| – | CC(C)C[C@H]1C(=O)N2C[C@@H]1CCCCCOc1ccc(cc1)C[C@H]2C(=O)NCCCCCC(=O)NO | 38 | 6.60 | 6.82 |
| – | CCC[C@H]1C(=O)N([C@@H](Cc2ccccc2)C(=O)NCCCCCC(=O)NO)C(=O)[C@@H]1CC(C)C | 51 | 6.40 | 6.24 |
| – | CC(C)C[C@H]1CN[C@H](C(=O)NCCCCCC(=O)NO)Cc2ccc(cc2)OCCCCC[C@H]1C(=O)OC(C)(C)C | 2.1 | – | – |
| – | CC(C)C[C@@H]1CC(=O)N([C@@H](Cc2ccccc2)C(=O)NCCCCCC(=O)NO)C1=O | 99 | 5.64 | 6.17 |
| 5.85 | CNCC(=O)[C@@H](Cc1ccccc1)NC(=O)CCCCCCC(=O)NO | – | – | – |
| – | CC(C)C[C@H]1C(=O)N([C@@H](Cc2ccccc2)C(=O)NCCCCCC(=O)NO)C(=O)C12CCCC2 | 66 | 5.82 | 6.15 |
| – | CCC[C@H]1C(=O)N([C@@H](Cc2ccc(OC)cc2)C(=O)NCCCCCC(=O)NO)C(=O)[C@@H]1CC(C)C | 38 | 6.28 | 6.74 |
| – | O=C(CCCCCNC(=O)[C@H](Cc1ccccc1)N1C(=O)CCC1=O)NO | 660 | 4.85 | 5.00 |
| – | CC(C)C[C@@H]1CC(=O)N(CC(=O)NCCCCCC(=O)NO)C1=O | 5000 | – | – |
| – | O=C(CCCCCNC(=O)[C@H](Cc1ccccc1)N1CCCC1=O)NO | > 5000 | – | – |
